Data as given in a melting point compilation (Tetko et al.; mined from patent text by program, amines drawn as free bases though some values may be those of a salt).

| melting point [°C] | SMILES |
| --- | --- |
| 285 to 288 | Cc1ccc(-c2ccc3c(c2)C=C(C(=O)Nc2ccc(Cc4ncccc4O)cc2)CCO3)cc1 |
| 116 to 118 | CCc1nc2c(cnn2CC)c(NC2CCOCC2)c1CNC(=O)c1cc(C)cc(C(=O)NCc2cccc(Br)c2)c1 |
| 72 to 73.5 | CCc1nc2cnc3ccccc3c2n1CC(C)C |
| 82 | CCN(CC)C(=O)COc1cc(-c2ccccc2)cc2ccccc12 |
| 139 | CC(C)(C)NS(=O)(=O)c1c(S)cccc1C(F)(F)F |
| 181 to 182 | CCn1ncc2c3noc(C)c3cnc21 |
| 127 to 130 | Nc1nc(NCC(c2ccccc2)c2ccc(F)cc2)c2ncn(C3OC(CO)C(O)C3O)c2n1 (stereo not given) |
| 52 to 55 | Cc1cccc(C)c1NCC(C)Nc1c(C)cccc1C (stereo not given) |
| 173 to 175 | O=C(O)Cc1ccc(Cc2nc3c(F)c(F)cc(F)c3s2)cc1 |
| 109 to 110 | COc1ccccc1N(CN1CCOC1=O)C(=O)CCl |
| 74 to 75 | COC(=O)CC(=O)NC(C)(C)CC(C)(C)C |
| 105 | CCCCOc1ccc(N2CCN(c3cccc(C)c3)CC2)nn1 |
| 74 to 75 | O=C(O)CCCCOc1ccccc1OCc1ccccc1 |
| 234 to 235 | Cc1cc(-c2nc3cccnn3c2-c2ccnc(NC(=O)c3ccccn3)c2)ccc1F |
| 244 | COc1ccc(-c2nc(N)c(C(N)=O)nc2-c2ccc(=O)n(C(C)C)c2)cc1 |
| 202 to 206 | CN1CCN(c2cc3nc(C(C)(C)C)sc3cc2NC(=S)N2CCCCC2)CC1 |
| 87 to 88 | CC(C)[C@H](NC(=O)OC(C)(C)C)[C@H](O)C(F)(F)F |
| 200 to 201 | N#Cc1ccc(N(Cc2ccc(OCc3ccccc3)cc2)n2cnnc2)cc1-c1cc2ccccc2o1 |
| 115 to 120 | CN1CCC(N(CCN2CCCC2)C(=O)c2ccc(Nc3nccc(Nc4ccc(C(F)(F)F)cc4)n3)cc2)CC1 |
| 104 to 105 | CC(C)c1ccc(OCC(=O)Cl)cc1 |
| 241 to 243 | COc1cc(C(=O)NC2CCN(C)CC2)ccc1Nc1ncc2c(n1)N(C1CCCC1)CC(F)(F)C(=O)N2C |
| 138 to 140 | CCOC(=O)c1cc(=O)c2cc3c(c(CC4CO4)c2o1)CCCC3 (stereo not given) |
| 138 to 139 | O=C(O)CCc1c(Sc2ccccc2)c2cc(F)ccc2n1Cc1ccc(Cl)cc1 |
| 117 | O=C(NCC(F)(F)F)c1ccc(C(F)(F)F)cc1 |

| melting point [°C] | SMILES |
| --- | --- |
| 103 to 105 | O=C1c2ccc(-c3cccnc3)cc2CC1Cl (stereo not given) |
| 97 to 98.5 | Cc1ccc(N2CSC(=NCc3ccc(C(F)(F)F)cc3)N(CC(F)(F)F)C2=O)cc1 |
| 103 to 104 | CCNC(=O)c1c([Si](C)(C)C)ccc(C(=O)OC)c1Cl |
| 107 to 110 | O=C(O)CCCCCCCCCCCNC(=O)CCCCCCCCCCI |
| 184 to 185 | COc1ccc(-c2coc3ccc(C(=O)NN)cc23)cc1 |
| 199 to 200 | CC(C)C(=O)Nc1ccn2nc(-c3ccccc3)c(-c3ccc(=O)n(C(C)C)n3)c2c1 |
| 123 to 124 | O=c1oc(-c2cccc(Cl)c2)cc(O)c1SCCCCc1ccccc1 |
| 165 to 169 | COC(=O)NCCc1ccc(C(=O)OC)c(S(=O)(=O)NC(=O)Nc2nc(OC)cc(OC)n2)c1 |
| 223 to 224 | COc1cc(C(=O)N(C2CCCC2)C2CCCC2)ccc1Cn1cccc2ncnc1-2 |
| 140 to 142 | CCSCCn1cc(C(=O)NCc2ccc(Cl)cc2)c(=O)c2cc(CN3CCOCC3)ccc21 |
| 195 to 199 | Oc1ncccc1C1(O)CCN(CC23CC(c4ccccc42)c2ccccc23)CC1 |
| 166 to 167 | O=C1c2ccccc2CN1c1ccc(OCCN2CCN(c3nsc4ccccc34)CC2)cc1 |
| 127 to 129 | O=C(C#Cc1ccc(Cl)cc1)Nc1ccc2c(ccn2CCN2CCCC2)c1 |
| 282 to 283 | Cc1ccc(-c2nc(O)cc(-c3ccccc3)n2)cc1 |
| 98 to 99 | CC(=O)N[C@@H](C)CO[C@H]1CC[C@H](n2cc3ccc(OCCC4CC4)cc3n2)CC1 |
| 170 to 172 | CC(=O)NC(Cc1ccc(CC(=O)OC(C)(C)C)cc1)C(=O)OCc1ccccc1 (stereo not given) |
| 143 to 146 | COC(=O)C(C)(C(=O)O)N1C(=O)CCC(N2C(=O)c3ccccc3C2=O)C1=O (stereo not given) |
| 154 | CC(=O)OC1CSC(Oc2ccc(-c3c(C)n[nH]c3C)nc2)C(OC(C)=O)C1OC(C)=O (stereo not given) |
| 121 to 123 | Cc1cc(C(=O)NCOCc2cccnc2)ncc1C(c1cc(F)ccc1F)S(=O)(=O)c1ccc(F)cc1 (stereo not given) |
| 124 to 126 | Cn1nc(CO)cc1OCCCN1CCN(c2cccc3sccc23)CC1 |
| 76 to 78 | NCC(O)C1=CC2(CCCC2)c2ccccc21 (stereo not given) |
| 196 to 198 | CCCCCCCNC(=O)c1ccccc1CN1C(=O)C2(COc3cc4c(cc32)CCO4)c2ccccc21 (stereo not given) |
| 137 to 138 | CC(=NO)C(=O)c1ccc(OCc2cccc(C(F)(F)F)c2)cc1 |
| 184 to 186 | CN1C(=O)C2(COc3cc4c(cc32)OCCO4)c2c(NS(C)(=O)=O)cccc21 (stereo not given) |

| melting point [°C] | SMILES |
| --- | --- |
| 197 to 199 | COc1cc2c(cc1OC)C(=O)C(=Cc1ccc(O)cc1)CC2 |
| 186 to 187 | CCOC(=O)CCCCCCCn1cnc(-c2ccc(O)cc2)c1-c1ccc(O)cc1 |
| 154 to 156 | OCC1OC(n2cnc3c(SCc4ccccc4)cc(Cl)nc32)C(O)C1O (stereo not given) |
| 39 to 44 | COCC(F)Cn1ccnc1[N+](=O)[O-] (stereo not given) |
| 73 to 74 | CCCCCCCCCCCCCCCCCNC(=O)OCCSCCOC(=O)NCc1ccccn1 |
| 136 to 138 | NCCCCCCOc1ccccc1C(=O)Nc1ccc(C(=O)N2CCCCc3ccccc32)cc1 |
| 88 to 90 | O=C(C(=O)c1cccc(Br)c1)c1ccncc1 |
| 49 to 50 | CCOC(=O)/C(=C\Nc1cccc(OC)c1)c1ccccc1 |
| 193 to 195 | CCN1c2cc(N)ccc2N(C)C(=O)c2cccnc21 |
| 133 to 136 | C[C@H]1C(=O)Nc2ccc(Cl)cc2N1C(=O)OCCBr |
| 150 to 152 | CCOc1cc(F)ccc1-c1noc2c(Cl)c(OC)ccc12 |
| 172 to 181 | CSCc1nc(C(C)(C)O)c(C(=O)O)n1Cc1ccc(-c2ccccc2-c2nnn[nH]2)cc1 |
| 223 | CC1CCc2nc(=O)c(C(N)=O)cn21 (stereo not given) |
| 211 to 213 | O=c1c2cccc(O)c2oc2cc(O)cc(O)c12 |
| 100 | CS(=O)(=O)c1ccc(C(O)c2ccc3ccccc3c2)cc1 (stereo not given) |
| 172 to 174 | CC(C)(C)C(=O)Nc1ccc(C=CC(=O)N2CCc3c([nH]c4ccccc34)C2c2ccc3c(c2)OCO3)cc1 (stereo not given) |
| 138 | Cc1ccccc1Cn1[nH]c(N)cc1=O |
| 122 to 126 | COCCC1(C(=O)N[C@@H](Cc2ccc(N3C(=O)c4cccc(C#N)c4C3=O)cc2)C(=O)OC)CCCC1 |
| 227 to 228 | CN(Cc1ccc2c(Br)c(OCc3nnn[nH]3)ccc2c1)C(=O)c1cn(C)c2ccccc12 |
| 103 to 105 | CCCCCCCCCc1cc(C=CC(=O)N2CCN(c3ccc(NC(=N)c4cccs4)cc3)CC2)cc(CCCCCCCCC)c1O |
| 235 to 237 | COc1cc2nc(N)nc(-c3c(Br)cc(C)cc3Br)c2cc1OC |
| 147 to 149 | Clc1ccc2nc(Cl)c(-c3ccccc3)cc2c1 |
| 111 | Cc1ccc(-c2nc3ccc(OCCN4CCCCC4)cc3n2-c2ccccc2)cc1C |
| 169 to 171 | COc1ccc(C#N)c(O)c1 |

| melting point [°C] | SMILES |
| --- | --- |
| 207 to 213 | O=C1c2c(cc(O)c(Cl)c2Cl)CC1(c1ccccc1)c1ccccc1 |
| 158 to 159 | Cc1nc(C)c(Cl)c(NCc2nccc(SCCCSc3ncccn3)c2C)n1 |
| 190 to 191 | COc1cc2c(c3c1OC(C)(C)C3)C(c1ccnc(-n3c(=O)ccc4ccccc43)c1)=NC(C)(C)C2 |
| 96 to 97 | N#CCSc1nc2cc(Cl)ccc2s1 |
| 162 | O=C(O)CCCCc1cccc(-c2nc(=O)c3ccccc3s2)n1 |
| 245 to 246 | CCOC(=O)c1sc(Oc2ccc(O)cc2)c2c1CCc1cnn(C)c1-2 |
| 109 to 112 | COc1cc(C=O)cc(C#N)c1OC |
| 151 to 152 | CCCCN1Cc2[nH]c3ccccc3c2C1 |
| 70 to 71 | CCCCCCCCCCCCCCc1c[nH]c(C=O)c1 |
| 138 to 139 | CCOC(=O)c1nc(/C=C/c2ccc([N+](=O)[O-])o2)no1 |
| 247 to 249 | O=C(O)c1cnc2ncnn2c1S |
| 329 to 331 | NC(=O)c1nc(-c2cccc(O)c2)nc2c1[nH]c(=O)n2-c1ccccc1Oc1ccccc1 |
| 175 to 177 | CC(CC#N)C(C#N)(c1ccc(N2CCOCC2)c([N+](=O)[O-])c1)N1CCOCC1 (stereo not given) |
| 124 to 125 | O=C(N[C@@H](CC1CCCCC1)C(=O)N[C@@H](Cc1ccccc1)C(=O)CSCc1ccco1)OCc1ccccc1 |
| 70 to 75 | COc1cc2c(cc1OC)C(N1CCN(c3ccc4c(c3)CCC(=O)N4)CC1)=NCC2 |
| 216 to 217 | CC1(C)OC(=O)Nc2c(Br)cc(-c3cc(F)cc(C#N)c3)cc21 |
| 172 to 173 | CCCN(CC(C)n1c(CCOC)nc2c(N)nc3ccccc3c21)C(N)=S (stereo not given) |
| 132 to 137 | Clc1ccc2ncc(Br)n2n1 |
| 92.7 to 93.5 | CC(C)=CCOc1ccc(OCC=C(C)C)c(C(=O)NCCc2ccncc2)c1 |
| 152 to 155 | CC(C)(C#N)NC(=O)Sc1ccccc1 |
| 226 to 228 | NC(=O)NN=Cc1ccc(OC2C3CC4CC(C3)CC2C4)cc1 (stereo not given) |
| 106 to 108 | COC(=O)C1=C(C)NC(C)=C(C(=O)OCCN2CCN(Cc3ccccc3)CC2)C1c1cccc([N+](=O)[O-])c1 (stereo not given) |

| SMILES | melting point [°C] |
| --- | --- |
| CSC(C)=NOC(=O)N(C)SN(C(C)C)P1(=O)OCCCO1 | 134 to 135 |
| N#CN1CCC(c2n[nH]c3cc(Cl)ccc23)CC1 | 180 to 188 |
| Brc1ccc2c(C3CCNCC3)n[nH]c2c1 | 163 to 165 |
| CN1C(=O)CN=C(c2ccccc2F)c2cc(NC(=O)NCCO)ccc21 | 156 to 160 |
| CC1(C)OOC23CCCCC2CC(=O)OC3O1 (stereo not given) | 106 to 107 |
| COC(=O)c1nc(C)n2c1C(C)N=C(c1ccccc1)c1cc(Cl)ccc1-2 (stereo not given) | 217 to 221 |
